Results reported in EPA's aquatic toxicity sets.

tested on: Tetrahymena pyriformis; test: 48 h IGC50 (-log10 mol/L); higher = more toxic

Q: With `CCc1ccco1` as the compound, how does the “48 h IGC50 (-log10 mol/L)” value read?
A: The value was 2.48.

Q: For `CCCCCCC(=O)O`, which “48 h IGC50 (-log10 mol/L)” value is on record?
A: The value was 2.89.

Q: How did the “48 h IGC50 (-log10 mol/L)” value turn out when `CCCCc1ccco1` was run?
A: The value was 3.44.

Q: For `CCCCCCC(=O)CCCCCC`, which “48 h IGC50 (-log10 mol/L)” value is on record?
A: Its value is 4.52.

Q: With `O=[N+]([O-])c1c(F)cc(F)c(F)c1F` as the compound, how does the “48 h IGC50 (-log10 mol/L)” value read?
A: The value was 4.87.

Q: For `Oc1ccc(O)c(-c2ccccc2)c1`, which “48 h IGC50 (-log10 mol/L)” value is on record?
A: The value was 5.01.

Q: `CCC(O)c1ccccc1` (stereo not drawn) was tested. Which “48 h IGC50 (-log10 mol/L)” value did it give?
A: The value was 2.57.

Q: `CC(C)(C)c1cccc(O)c1` was tested. Which “48 h IGC50 (-log10 mol/L)” value did it give?
A: Its value is 3.74.

Q: With `Brc1ccccn1` as the compound, how does the “48 h IGC50 (-log10 mol/L)” value read?
A: The value was 2.46.

Q: `Nc1cc(Cl)ccc1O` was tested. Which “48 h IGC50 (-log10 mol/L)” value did it give?
A: Its value is 3.78.

Q: With `NC(=O)c1cccc([N+](=O)[O-])c1` as the compound, how does the “48 h IGC50 (-log10 mol/L)” value read?
A: The value was 2.81.

Q: With `Cc1ccc(Cl)c(N)c1Cl` as the compound, how does the “48 h IGC50 (-log10 mol/L)” value read?
A: Its value is 3.69.

Q: For `CCCCC(=O)c1ccccc1`, which “48 h IGC50 (-log10 mol/L)” value is on record?
A: Its value is 3.56.

Q: For `CC(C)C(N)CO` (stereo not drawn), which “48 h IGC50 (-log10 mol/L)” value is on record?
A: Its value is 2.42.

Q: Which “48 h IGC50 (-log10 mol/L)” value does the source give for `N#CCc1ccc(O)cc1` here?
A: The value was 2.62.

Q: For `COc1ccc([N+](=O)[O-])cc1`, which “48 h IGC50 (-log10 mol/L)” value is on record?
A: The value was 3.54.

Q: With `CCCCC(CC)COC(=O)c1ccc(O)cc1` (stereo not drawn) as the compound, how does the “48 h IGC50 (-log10 mol/L)” value read?
A: The value was 5.51.

Q: With `OCCCCCCCCCl` as the compound, how does the “48 h IGC50 (-log10 mol/L)” value read?
A: Its value is 3.49.

Q: `N#CCC(=O)c1ccco1` was tested. Which “48 h IGC50 (-log10 mol/L)” value did it give?
A: Its value is 3.3.

Q: For `O=C(c1ccc(O)cc1O)c1ccc(O)cc1O`, which “48 h IGC50 (-log10 mol/L)” value is on record?
A: The value was 3.96.

Q: `CC(C)CCCO` was tested. Which “48 h IGC50 (-log10 mol/L)” value did it give?
A: Its value is 2.36.

Q: With `CC(C)C(Br)C(=O)O` (stereo not drawn) as the compound, how does the “48 h IGC50 (-log10 mol/L)” value read?
A: The value was 2.45.

Q: Which “48 h IGC50 (-log10 mol/L)” value does the source give for `Cc1cccc(C=O)c1` here?
A: The value was 3.08.

Q: Which “48 h IGC50 (-log10 mol/L)” value does the source give for `Cc1c(O)c(Br)c(Br)c(Br)c1Br` here?
A: Its value is 5.57.

Q: How did the “48 h IGC50 (-log10 mol/L)” value turn out when `N#Cc1cc([N+](=O)[O-])cc([N+](=O)[O-])c1` was run?
A: The value was 4.22.

Q: `Cc1ccc(C)c(N)c1` was tested. Which “48 h IGC50 (-log10 mol/L)” value did it give?
A: The value was 2.67.

Q: Which “48 h IGC50 (-log10 mol/L)” value does the source give for `OCc1cccc(Cl)c1` here?
A: The value was 3.15.

Q: For `CCCC#CCO`, which “48 h IGC50 (-log10 mol/L)” value is on record?
A: Its value is 2.62.

Q: For `CCCCCCCCCCC=O`, which “48 h IGC50 (-log10 mol/L)” value is on record?
A: Its value is 4.69.

Q: For `CCCCCC#N`, which “48 h IGC50 (-log10 mol/L)” value is on record?
A: Its value is 2.62.

Q: For `CC(C)CCOC(=O)c1ccc(O)cc1`, which “48 h IGC50 (-log10 mol/L)” value is on record?
A: The value was 4.48.

Q: How did the “48 h IGC50 (-log10 mol/L)” value turn out when `O=[N+]([O-])c1c(Cl)ncnc1Cl` was run?
A: Its value is 5.12.

Q: Which “48 h IGC50 (-log10 mol/L)” value does the source give for `CC(C)CC(N)=O` here?
A: The value was 1.34.

Q: With `CCC(N)CC` as the compound, how does the “48 h IGC50 (-log10 mol/L)” value read?
A: The value was 2.19.

Q: For `Sc1ccccc1`, which “48 h IGC50 (-log10 mol/L)” value is on record?
A: The value was 4.66.

Q: Which “48 h IGC50 (-log10 mol/L)” value does the source give for `NC(=O)c1cc(Cl)ccc1[N+](=O)[O-]` here?
A: The value was 2.68.

Q: With `CC(=O)c1ccc(C#N)cc1` as the compound, how does the “48 h IGC50 (-log10 mol/L)” value read?
A: Its value is 2.63.

Q: With `O=c1ccc(Cl)c[nH]1` as the compound, how does the “48 h IGC50 (-log10 mol/L)” value read?
A: Its value is 2.25.

Q: For `C=Cc1ccc2ccccc2c1`, which “48 h IGC50 (-log10 mol/L)” value is on record?
A: Its value is 4.24.

Q: With `CC(=O)OCCCCCBr` as the compound, how does the “48 h IGC50 (-log10 mol/L)” value read?
A: Its value is 3.29.

Q: How did the “48 h IGC50 (-log10 mol/L)” value turn out when `CCOC(=O)Cc1cccnc1` was run?
A: Its value is 2.06.

Q: How did the “48 h IGC50 (-log10 mol/L)” value turn out when `OCc1cccc2ccccc12` was run?
A: Its value is 3.13.

Q: Which “48 h IGC50 (-log10 mol/L)” value does the source give for `O=[N+]([O-])c1cc(Cl)cc(Cl)c1O` here?
A: The value was 4.75.

Q: How did the “48 h IGC50 (-log10 mol/L)” value turn out when `CCCCC/C=C/C(=O)OC` was run?
A: The value was 3.77.

Q: For `C=COC(=O)c1ccc(C(C)(C)C)cc1`, which “48 h IGC50 (-log10 mol/L)” value is on record?
A: Its value is 4.57.

Q: Which “48 h IGC50 (-log10 mol/L)” value does the source give for `CCCCCCCl` here?
A: Its value is 3.78.

Q: Which “48 h IGC50 (-log10 mol/L)” value does the source give for `N#CCc1ccc(Br)cc1` here?
A: The value was 3.6.

Q: For `C=C(C)C(=O)OCC(C)C`, which “48 h IGC50 (-log10 mol/L)” value is on record?
A: Its value is 2.72.

Q: `O=C(CBr)c1ccccc1` was tested. Which “48 h IGC50 (-log10 mol/L)” value did it give?
A: Its value is 5.82.

Q: Which “48 h IGC50 (-log10 mol/L)” value does the source give for `COc1ccc(C=O)c(Cl)c1O` here?
A: Its value is 3.2.

Q: Which “48 h IGC50 (-log10 mol/L)” value does the source give for `CCCCCCOc1ccc(O)cc1` here?
A: The value was 4.64.

Q: `CC(=O)NC(C)(C)C` was tested. Which “48 h IGC50 (-log10 mol/L)” value did it give?
A: The value was 1.84.

Q: With `N#C/C=C/c1ccccc1` as the compound, how does the “48 h IGC50 (-log10 mol/L)” value read?
A: Its value is 3.16.

Q: `CC(=O)OCCCCBr` was tested. Which “48 h IGC50 (-log10 mol/L)” value did it give?
A: Its value is 3.39.

Q: With `CCCCCC(=O)CC(C)=O` as the compound, how does the “48 h IGC50 (-log10 mol/L)” value read?
A: The value was 3.51.

Q: `CC(C)(C)c1cc([N+](=O)[O-])c(O)c([N+](=O)[O-])c1` was tested. Which “48 h IGC50 (-log10 mol/L)” value did it give?
A: Its value is 4.8.

Q: How did the “48 h IGC50 (-log10 mol/L)” value turn out when `O=C(CO)c1ccccc1` was run?
A: Its value is 3.08.

Q: Which “48 h IGC50 (-log10 mol/L)” value does the source give for `CCOC(=O)CC#N` here?
A: Its value is 1.77.

Q: `CCc1ccc(C=O)cc1` was tested. Which “48 h IGC50 (-log10 mol/L)” value did it give?
A: The value was 3.29.

Q: With `CCOC(=O)C(C(=O)OCC)=C(C)C` as the compound, how does the “48 h IGC50 (-log10 mol/L)” value read?
A: The value was 2.93.

Q: `CCCC(C)N` (stereo not drawn) was tested. Which “48 h IGC50 (-log10 mol/L)” value did it give?
A: Its value is 2.31.

Q: `C/C=C/CCCO` was tested. Which “48 h IGC50 (-log10 mol/L)” value did it give?
A: The value was 2.25.

Q: With `CC(C)(Br)[N+](=O)[O-]` as the compound, how does the “48 h IGC50 (-log10 mol/L)” value read?
A: The value was 4.85.

Q: Which “48 h IGC50 (-log10 mol/L)” value does the source give for `O=C(c1ccccc1)c1ccc(O)c(O)c1O` here?
A: Its value is 3.88.

Q: For `c1ccc(Cc2cccnc2)cc1`, which “48 h IGC50 (-log10 mol/L)” value is on record?
A: The value was 3.68.

Q: Which “48 h IGC50 (-log10 mol/L)” value does the source give for `COc1cc(C#N)ccc1O` here?
A: The value was 2.97.

Q: Which “48 h IGC50 (-log10 mol/L)” value does the source give for `OCc1cccc(Br)c1` here?
A: Its value is 3.37.

Q: `N#CC(=O)c1ccccc1` was tested. Which “48 h IGC50 (-log10 mol/L)” value did it give?
A: Its value is 3.31.

Q: With `Oc1cccc(Br)c1` as the compound, how does the “48 h IGC50 (-log10 mol/L)” value read?
A: Its value is 4.15.

Q: For `Cc1ccccc1C(=O)c1ccccc1`, which “48 h IGC50 (-log10 mol/L)” value is on record?
A: Its value is 4.37.

Q: How did the “48 h IGC50 (-log10 mol/L)” value turn out when `CCCCCOC(=O)CC` was run?
A: The value was 2.96.

Q: How did the “48 h IGC50 (-log10 mol/L)” value turn out when `O=Nc1ccc(O)cc1` was run?
A: The value was 3.65.

Q: With `c1cnccn1` as the compound, how does the “48 h IGC50 (-log10 mol/L)” value read?
A: Its value is 1.18.

Q: For `CCCNC(N)=S`, which “48 h IGC50 (-log10 mol/L)” value is on record?
A: The value was 2.31.

Q: With `Nc1cc(F)c([N+](=O)[O-])cc1[N+](=O)[O-]` as the compound, how does the “48 h IGC50 (-log10 mol/L)” value read?
A: Its value is 4.69.

Q: How did the “48 h IGC50 (-log10 mol/L)” value turn out when `C/C=C/C=C/C=O` was run?
A: The value was 3.74.

Q: How did the “48 h IGC50 (-log10 mol/L)” value turn out when `O=[N+]([O-])c1ccc(/C=N/O)cc1` was run?
A: The value was 3.68.

Q: Which “48 h IGC50 (-log10 mol/L)” value does the source give for `CCOS(=O)OCC` here?
A: Its value is 2.01.

Q: Which “48 h IGC50 (-log10 mol/L)” value does the source give for `NC(=S)c1ccccc1` here?
A: The value was 3.09.

Q: With `CC(=O)C(C)Cl` (stereo not drawn) as the compound, how does the “48 h IGC50 (-log10 mol/L)” value read?
A: Its value is 3.27.

Q: `COC(=O)CCCCCCCCC(=O)OC` was tested. Which “48 h IGC50 (-log10 mol/L)” value did it give?
A: Its value is 4.01.

Q: For `CCC(C)CN` (stereo not drawn), which “48 h IGC50 (-log10 mol/L)” value is on record?
A: Its value is 2.52.

Q: `Cc1c(C)c(O)c(C)c(C)c1O` was tested. Which “48 h IGC50 (-log10 mol/L)” value did it give?
A: Its value is 4.28.
